# Laboratory results reported in PubChem BioAssay (NCI).
#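 48-hour exposure; five concentrations; linearly interpolated endpoints. GI50: concentration for 50% inhibition of growth. TGI marks complete inhibition of growth.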
# How the values were obtained:
# Test in all cases: NCI-60 cell line screen, 48 h
# [1] = system: MDA-MB-468 breast
# [2] = system: SNB-75 CNS
# [3] = system: OVCAR-4 ovarian
# [4] = system: NCI-H460 lung
# [5] = system: SF-268 CNS
# [6] = system: SNB-19 CNS
# [7] = system: SK-OV-3 ovarian
# [8] = system: RPMI-8226 leukemia
# [9] = system: HCT-116 colon
# [10] = system: NCI-H522 lung
# [11] = system: MDA-MB-231 breast
# [12] = system: MDA-MB-435
# [13] = system: LOX IMVI melanoma
# [14] = system: TK-10 renal
# [15] = system: HT29 colon
# [16] = system: A549 NSCLC
# [17] = system: HOP-92 NSCLC
# [18] = system: NCI-H226 lung
# [19] = system: U251 CNS
# [20] = system: A498 renal
# [21] = system: HCC-2998 colon
# [22] = system: UACC-62 melanoma
# [23] = system: SK-MEL-5 melanoma
# [24] = system: RXF 393 renal
# [25] = system: SN12C renal
# [26] = system: 786-0 renal
# [27] = system: MCF7 breast
# [28] = system: SF-539 CNS
# [29] = system: HOP-62 NSCLC
# [30] = system: UO-31 renal
# [31] = system: PC-3 prostate
# [32] = system: KM12 colon
# [33] = system: HL-60(TB) leukemia
# [34] = system: OVCAR-5 ovarian
# [35] = system: MOLT-4 leukemia
# [36] = system: SR leukemia
# [37] = system: T-47D breast
# [38] = system: OVCAR-8 ovarian
# [39] = system: MALME-3M melanoma
# [40] = system: ACHN renal
# [41] = system: HCT-15 colon
# [42] = system: CCRF-CEM leukemia
# [43] = system: COLO 205 colon
# [44] = system: SK-MEL-28 melanoma
# [45] = system: HS 578T breast
# [46] = system: NCI-H23 lung
# [47] = system: CAKI-1 renal
# [48] = system: M14 melanoma
# [49] = system: OVCAR-3 ovarian
# [50] = system: BT-549 breast
# [51] = system: DU-145 prostate
# [52] = system: SF-295 CNS
# [53] = system: UACC-257 melanoma
# [54] = system: SW-620 colon
# [55] = system: IGROV1 ovarian
# [56] = system: EKVX NSCLC
# [57] = system: K-562 leukemia
structure (smiles),measurement,setting,value
Cc1cc(C#Cc2ccccc2)ccc1-n1c(/C=C/c2ccc(O)cc2)nc2ccccc2c1=O,GI50,[1],3780 nM
same,TGI,[1],> 100 µM
CCn1cc(C2NC(=O)c3cc(F)ccc3N2)c2cccc(Cl)c21 (configuration not stated),GI50,[1],292 nM
same,TGI,[1],6.13 µM
Cc1ccc(Nc2ccnc(Nc3cccc(C(N)=O)c3)n2)cc1O,GI50,[1],2620 nM
same,TGI,[1],9.56 µM
O=C(Nc1ccc(-c2nc3ccc(NC(=O)c4ccc(Cl)cc4)cc3[nH]2)cc1)c1ccc(Cl)cc1,GI50,[1],2580 nM
same,TGI,[1],8.45 µM
Fc1ccc(-c2c(-c3ccncc3)n(CCN3CCOCC3)c3cccnc23)cc1,GI50,[1],> 25000 nM
same,TGI,[1],> 25 µM
O=C(O)CCN1C(=O)/C(=C/C(Cl)=C/c2ccccc2)SC1=S,GI50,[1],1200 nM
same,TGI,[1],2.98 µM
CC(C)=CCC[C@](C)(O)[C@H]1CC[C@]2(C)[C@@H]1CC[C@@H]1[C@@]3(C)CC[C@H](OC(=O)CCC(=O)O)C(C)(C)[C@@H]3CC[C@]12C,GI50,[1],22300 nM
same,TGI,[1],96.1 µM
N#CC(C#N)=C/C=C/c1cccc([N+](=O)[O-])c1,GI50,[1],767 nM
same,TGI,[1],2.28 µM
NC(=O)c1ccc(-c2c3ccccc3cc3c2ccc2ccccc23)cc1,GI50,[1],1340 nM
same,TGI,[1],6.97 µM
O=C(/C=C/c1cccs1)Nc1ncc(Cc2ccccc2F)s1,GI50,[1],364 nM
same,TGI,[1],> 100 µM
COc1ccccc1OCC(O)CO (configuration not stated),GI50,[1],> 100000 nM
same,TGI,[1],> 100 µM
NC(=NC1C2CC3CC(C2)CC1C3)Nc1ccc(I)cc1 (configuration not stated),GI50,[1],1960 nM
same,TGI,[1],4.68 µM
COc1cc(Nc2ncc(-c3ccccc3)o2)cc(OC)c1OC,GI50,[1],74.4 nM
same,TGI,[1],1.1 µM
COc1cc(C(=O)c2c(-c3ccccc3)oc3ccccc23)cc(OC)c1O,GI50,[1],362 nM
same,TGI,[1],3.48 µM
CCc1ccc(/C=C2/SC(=S)NC2=O)cc1,GI50,[1],20300 nM
same,TGI,[1],69.4 µM
C=C(C)[C@@H]1CC[C@]2(C#N)CC[C@]3(C)[C@H](CC[C@@H]4[C@@]5(C)CCCNC(C)(C)[C@@H]5CC[C@]43C)[C@@H]12,GI50,[1],1750 nM
same,TGI,[1],3.21 µM
Cc1cc(N=C(N)c2ccccc2)ccc1OCCCCCCCCn1ccnc1,GI50,[2],418 nM
same,TGI,[2],7.3 µM
same,GI50,[3],2890 nM
same,TGI,[3],35.3 µM
same,GI50,[4],388 nM
same,TGI,[4],11.6 µM
same,GI50,[5],1220 nM
same,TGI,[5],16.6 µM
same,GI50,[6],753 nM
same,TGI,[6],17.7 µM
same,GI50,[7],512 nM
same,TGI,[7],14.9 µM
same,GI50,[8],352 nM
same,TGI,[8],1630 nM
same,GI50,[9],375 nM
same,TGI,[9],11.4 µM
same,GI50,[10],245 nM
same,TGI,[10],986 nM
same,GI50,[11],540 nM
same,TGI,[11],4.61 µM
same,GI50,[12],225 nM
same,TGI,[12],573 nM
same,GI50,[13],327 nM
same,TGI,[13],1860 nM
same,GI50,[14],1460 nM
same,TGI,[14],17.2 µM
same,GI50,[15],239 nM
same,TGI,[15],667 nM
same,GI50,[16],803 nM
same,TGI,[16],14.9 µM
same,GI50,[17],589 nM
same,TGI,[17],7.87 µM
same,GI50,[18],332 nM
same,TGI,[18],1790 nM
same,GI50,[19],355 nM
same,TGI,[19],3.1 µM
same,GI50,[20],8.12 µM
same,TGI,[20],23.7 µM
same,GI50,[21],224 nM
same,TGI,[21],1760 nM
same,GI50,[22],494 nM
same,TGI,[22],7.58 µM
same,GI50,[23],325 nM
same,TGI,[23],1170 nM
same,GI50,[24],231 nM
same,TGI,[24],1570 nM
same,GI50,[25],440 nM
same,TGI,[25],7.87 µM
same,GI50,[26],483 nM
same,TGI,[26],4.58 µM
same,GI50,[27],312 nM
same,TGI,[27],10.7 µM
same,GI50,[28],227 nM
same,TGI,[28],567 nM
same,GI50,[29],441 nM
same,TGI,[29],15.2 µM
same,GI50,[30],680 nM
same,TGI,[30],8.27 µM
same,GI50,[31],460 nM
same,TGI,[31],16.5 µM
same,GI50,[32],444 nM
same,TGI,[32],13.6 µM
same,GI50,[33],211 nM
same,TGI,[33],659 nM
same,GI50,[34],456 nM
same,TGI,[34],11.5 µM
same,GI50,[35],565 nM
same,TGI,[35],17.7 µM
same,GI50,[36],327 nM
same,TGI,[36],19.4 µM
same,GI50,[37],594 nM
same,TGI,[37],21.5 µM
same,GI50,[38],471 nM
same,TGI,[38],2950 nM
same,GI50,[39],323 nM
same,TGI,[39],1590 nM
same,GI50,[1],155 nM
same,TGI,[1],0.694 µM
same,GI50,[40],547 nM
same,TGI,[40],13.2 µM
same,GI50,[41],361 nM
same,TGI,[41],11.5 µM
same,GI50,[42],371 nM
same,TGI,[42],12.4 µM
same,GI50,[43],354 nM
same,TGI,[43],1450 nM
same,GI50,[44],1010 nM
same,TGI,[44],8.68 µM
same,GI50,[45],991 nM
same,TGI,[45],12.1 µM
same,GI50,[46],262 nM
same,TGI,[46],4.06 µM
same,GI50,[47],580 nM
same,TGI,[47],12 µM
same,GI50,[48],323 nM
same,TGI,[48],1310 nM
same,GI50,[49],366 nM
same,TGI,[49],13.1 µM
same,GI50,[50],1450 nM
same,TGI,[50],11.1 µM
same,GI50,[51],407 nM
same,TGI,[51],14.3 µM
same,GI50,[52],259 nM
same,TGI,[52],929 nM
same,GI50,[53],1470 nM
same,TGI,[53],13 µM
same,GI50,[54],463 nM
same,TGI,[54],20.9 µM
same,GI50,[55],634 nM
same,TGI,[55],12.4 µM
same,GI50,[56],422 nM
same,TGI,[56],13.3 µM
same,GI50,[57],283 nM
same,TGI,[57],11.2 µM
Fc1cc(Nc2ccc3c(OCCCN4CCOCC4)cccc3n2)ccc1Cl,GI50,[1],2080 nM
same,TGI,[1],4.43 µM
O=C(N/N=C\c1cc(Cl)ccc1O)N/N=C/c1cc(Cl)ccc1O,GI50,[1],2580 nM
same,TGI,[1],> 100 µM
CCNC1=CC(=O)c2ncccc2C1=O,GI50,[1],2110 nM
same,TGI,[1],7.55 µM
O=C(O)c1c(Cl)c(Cl)c(Cl)c(Cl)c1-c1c2cc(I)c(=O)c(I)c-2oc2c(I)c(O)c(I)cc12,GI50,[1],36900 nM
same,TGI,[1],76.2 µM
Cn1cc(/C=C2\C(=O)Nc3cccnc32)c2ccccc21,GI50,[1],12000 nM
same,TGI,[1],> 25 µM
Brc1ccc2[nH]cc(-c3nc(-c4c[nH]c5ccncc45)cs3)c2c1,GI50,[1],1770 nM
same,TGI,[1],3.45 µM
O=c1c2c(=NCCCN3CCCC3)cc3c(=O)n(CCCN4CCCC4)c(=O)c4c(NCCCN5CCCC5)cc(c(O)n1CCCN1CCCC1)c2c4-3,GI50,[1],1740 nM
same,TGI,[1],4.68 µM
CCN(CC)c1ccc(/C=N\NC(=O)c2cccc(Nc3ccnc(C(F)(F)F)c3)c2)c(O)c1,GI50,[1],239 nM
same,TGI,[1],3.51 µM
COc1cc([N+](=O)[O-])c2ncccc2c1O,GI50,[1],35600 nM
same,TGI,[1],> 100 µM
CN1C=CN(Cc2ccc(-c3ccccn3)nc2)[CH-]1.CN1C=CN(Cc2ccc(-c3ccccn3)nc2)[CH-]1.[Au+3],GI50,[1],337 nM
same,TGI,[1],2.53 µM
CCOc1ccc(N2C(N)=NC(N)=NC2(C)C)cc1,GI50,[1],20800 nM
same,TGI,[1],> 100 µM
COCCn1cc(-c2csc(-c3c[nH]c4ccc(F)cc34)n2)c2cccnc21,GI50,[1],2440 nM
same,TGI,[1],8.51 µM
COc1cc(SC)ccc1C(=O)N1CCCC(C)C1 (configuration not stated),GI50,[1],26100 nM
same,TGI,[1],> 100 µM
